Results taken from patent publication US12643882B2, “Inhibitors of human respiratory syncytial virus and metapneumovirus” (priority 2022, dated 2026).

Columns and labels:
RSV-A2-GFP virus = assay: microbe, parasite or virus in culture; format: cell-based, Human Respiratory Syncytial Virus; details: Calu-1 cells infected with RSV-A2-GFP, 96 hrs, GFP-expressing cells counted; read-out: RSV EC50
Outline: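 IC50 (GFP-expressing cell counts by Acumen imaging) and CC50 (same-well CellTiter-Glo) were obtained by 4-parameter logistic fitting. Compounds were tested in 10-point 3-fold series for 96 h at 37° C, 5% CO2. Thawed Calu-1 ARF cells were infected at MOI 1.2 with GFP-reporter RSV-A2 in 2% FBS DMEM.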

hMPV-GFP virus = assay: microbe, parasite or virus in culture; format: cell-based, human metapneumovirus; details: VERO cells infected with hMPV-GFP, 48 hrs, GFP-expressing cells counted; read-out: hMPV EC50
Outline: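 Antiviral IC50 was derived from imaging counts of GFP-expressing cells, with CC50 from a same-well CellTiter-Glo read, both by 4-parameter logistic fitting. VERO cells plus hMPV-GFP (MOI 1.25) were exposed 48 h at 37 °C to 10-point 3-fold compound dilutions (typical final 40,300–2 nM).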

Structure (SMILES)	EC50 (RSV-A2-GFP virus)	EC50 (hMPV-GFP virus)
Cc1nc(-c2ncccn2)sc1C(=O)N1C[C@@H]2[C@H](C1)[C@H]2Oc1cc(C(C)(C)N)cc(-c2ccc(C(F)F)cc2)n1 [Example 25, ((1R,5S,6s)-6-((4-(2-aminopropan-2-yl)-6-(4-(difluoromethyl)phenyl)pyridin-2-yl)oxy)-3-azabicyclo[3.1.0]hexan-3-yl)(4-methyl-2-(pyrimidin-2-yl)thiazol-5-yl)methanone]	< 10 nM	10 to 100 nM
Cc1nc(-c2ncccn2)sc1C(=O)N1C[C@@H]2[C@H](C1)[C@H]2Oc1cc(C(C)(C)N)cc(-c2ccc(C(C)(F)F)cc2)n1 [Example 26, ((1R,5S,6s)-6-((4-(2-aminopropan-2-yl)-6-(4-(1,1-difluoroethyl)phenyl)pyridin-2-yl)oxy)-3-azabicyclo[3.1.0]hexan-3-yl)(4-methyl-2-(pyrimidin-2-yl)thiazol-5-yl)methanone]	< 10 nM	10 to 100 nM
Cc1nc(-c2ncccn2)sc1C(=O)N1C[C@@H]2[C@H](C1)[C@H]2Oc1cc(C(C)(C)N)cc(-c2ccc(C(F)(F)F)cc2)n1 [Example 27, ((1R,5S,6s)-6-((4-(2-aminopropan-2-yl)-6-(4-(trifluoromethyl)phenyl)pyridin-2-yl)oxy)-3-azabicyclo[3.1.0]hexan-3-yl)(4-methyl-2-(pyrimidin-2-yl)thiazol-5-yl)methanone]	< 10 nM	10 to 100 nM
Cc1nc(-c2ncccn2)sc1C(=O)N1C[C@@H]2[C@H](C1)[C@H]2Oc1cc(C(C)(C)N)cc(-c2ccc(C(F)(F)F)nc2)n1 [Example 28, ((1R,5S,6s)-6-((4-(2-aminopropan-2-yl)-6′-(trifluoromethyl)-[2,3′-bipyridin]-6-yl)oxy)-3-azabicyclo[3.1.0]hexan-3-yl)(4-methyl-2-(pyrimidin-2-yl)thiazol-5-yl)methanone]	< 10 nM	10 to 100 nM
Cc1nc(-c2ncccn2)sc1C(=O)N1C[C@@H]2[C@H](C1)[C@H]2Oc1cc(C(C)(C)N)cc(-c2ccc(C(F)(F)F)c(Cl)c2)n1 [Example 29, ((1R,5S,6s)-6-((4-(2-aminopropan-2-yl)-6-(3-chloro-4-(trifluoromethyl)phenyl)pyridin-2-yl)oxy)-3-azabicyclo[3.1.0]hexan-3-yl)(4-methyl-2-(pyrimidin-2-yl)thiazol-5-yl)methanone]	< 10 nM	10 to 100 nM
Cc1nc(-c2ncccn2)sc1C(=O)N1C[C@@H]2[C@H](C1)[C@H]2Oc1cc(C(C)(C)N)cc(-c2ccc(C(F)(F)F)cc2Cl)n1 [Example 30, ((1R,5S,6s)-6-((4-(2-aminopropan-2-yl)-6-(2-chloro-4-(trifluoromethyl)phenyl)pyridin-2-yl)oxy)-3-azabicyclo[3.1.0]hexan-3-yl)(4-methyl-2-(pyrimidin-2-yl)thiazol-5-yl)methanone]	< 10 nM	10 to 100 nM
Cc1nc(-c2ncccn2)sc1C(=O)N1C[C@@H]2[C@H](C1)[C@H]2Oc1cc(C(C)(C)N)cc(-c2ccc(C(F)(F)F)c(F)c2F)n1 [Example 31, ((1R,5S,6s)-6-((4-(2-aminopropan-2-yl)-6-(2,3-difluoro-4-(trifluoromethyl)phenyl)pyridin-2-yl)oxy)-3-azabicyclo[3.1.0]hexan-3-yl)(4-methyl-2-(pyrimidin-2-yl)thiazol-5-yl)methanone]	< 10 nM	10 to 100 nM
Cc1ccc(-c2cc(C(C)(C)N)cc(O[C@H]3[C@@H]4CN(C(=O)c5sc(-c6ncccn6)nc5C)C[C@@H]43)n2)cc1C [Example 32, ((1R,5S,6s)-6-((4-(2-aminopropan-2-yl)-6-(3,4-dimethylphenyl)pyridin-2-yl)oxy)-3-azabicyclo[3.1.0]hexan-3-yl)(4-methyl-2-(pyrimidin-2-yl)thiazol-5-yl)methanone]	< 10 nM	> 100 nM
Cc1ccc(-c2cc(C(C)(C)N)cc(O[C@H]3[C@@H]4CN(C(=O)c5sc(-c6ncccn6)nc5C)C[C@@H]43)n2)c(C)c1 [Example 33, ((1R,5S,6s)-6-((4-(2-aminopropan-2-yl)-6-(2,4-dimethylphenyl)pyridin-2-yl)oxy)-3-azabicyclo[3.1.0]hexan-3-yl)(4-methyl-2-(pyrimidin-2-yl)thiazol-5-yl)methanone]	< 10 nM	> 100 nM
Cc1nc(-c2ncccn2)sc1C(=O)N1C[C@@H]2[C@H](C1)[C@H]2Oc1cc(C(C)(C)N)cc(-c2ccc3c(c2)CCO3)n1 [Example 34, ((1R,5S,6s)-6-((4-(2-aminopropan-2-yl)-6-(2,3-dihydrobenzofuran-5-yl)pyridin-2-yl)oxy)-3-azabicyclo[3.1.0]hexan-3-yl)(4-methyl-2-(pyrimidin-2-yl)thiazol-5-yl)methanone]	< 10 nM	> 100 nM
Cc1cc(-c2cc(C(C)(C)N)cc(O[C@H]3[C@@H]4CN(C(=O)c5sc(-c6ncccn6)nc5C)C[C@@H]43)n2)ccc1F [Example 35, ((1R,5S,6s)-6-((4-(2-aminopropan-2-yl)-6-(4-fluoro-3-methylphenyl)pyridin-2-yl)oxy)-3-azabicyclo[3.1.0]hexan-3-yl)(4-methyl-2-(pyrimidin-2-yl)thiazol-5-yl)methanone]	< 10 nM	> 100 nM
Cc1nc(-c2ncccn2)sc1C(=O)N1C[C@@H]2[C@H](C1)[C@H]2Oc1cc(C(C)(C)N)cc(-c2ccc(C#N)c(F)c2)n1 [Example 36, 4-(4-(2-aminopropan-2-yl)-6-(((1R,5S,6s)-3-(4-methyl-2-(pyrimidin-2-yl)thiazole-5-carbonyl)-3-azabicyclo[3.1.0]hexan-6-yl)oxy)pyridin-2-yl)-2-fluorobenzonitrile]	< 10 nM	10 to 100 nM
Cc1ccc(-c2cc(C(C)(C)N)cc(O[C@H]3[C@@H]4CN(C(=O)c5sc(-c6ncccn6)nc5C)C[C@@H]43)n2)cc1F [Example 37, ((1R,5S,6s)-6-((4-(2-aminopropan-2-yl)-6-(3-fluoro-4-methylphenyl)pyridin-2-yl)oxy)-3-azabicyclo[3.1.0]hexan-3-yl)(4-methyl-2-(pyrimidin-2-yl)thiazol-5-yl)methanone]	< 10 nM	10 to 100 nM
Cc1ccc(-c2cc(C(C)(C)N)cc(O[C@H]3[C@@H]4CN(C(=O)c5sc(-c6ncccn6)nc5C)C[C@@H]43)n2)c(F)c1 [Example 38, ((1R,5S,6s)-6-((4-(2-aminopropan-2-yl)-6-(2-fluoro-4-methylphenyl)pyridin-2-yl)oxy)-3-azabicyclo[3.1.0]hexan-3-yl)(4-methyl-2-(pyrimidin-2-yl)thiazol-5-yl)methanone]	< 10 nM	10 to 100 nM
Cc1cc(F)ccc1-c1cc(C(C)(C)N)cc(O[C@H]2[C@@H]3CN(C(=O)c4sc(-c5ncccn5)nc4C)C[C@@H]32)n1 [Example 39, ((1R,5S,6s)-6-((4-(2-aminopropan-2-yl)-6-(4-fluoro-2-methylphenyl)pyridin-2-yl)oxy)-3-azabicyclo[3.1.0]hexan-3-yl)(4-methyl-2-(pyrimidin-2-yl)thiazol-5-yl)methanone]	< 10 nM	10 to 100 nM
Cc1cccc(-c2cc(C(C)(C)N)cc(O[C@H]3[C@@H]4CN(C(=O)c5sc(-c6ncccn6)nc5C)C[C@@H]43)n2)c1F [Example 40, ((1R,5S,6s)-6-((4-(2-aminopropan-2-yl)-6-(2-fluoro-3-methylphenyl)pyridin-2-yl)oxy)-3-azabicyclo[3.1.0]hexan-3-yl)(4-methyl-2-(pyrimidin-2-yl)thiazol-5-yl)methanone]	< 10 nM	> 100 nM
COc1cc(F)ccc1-c1cc(C(C)(C)N)cc(O[C@H]2[C@@H]3CN(C(=O)c4sc(-c5ncccn5)nc4C)C[C@@H]32)n1 [Example 41, ((1R,5S,6s)-6-((4-(2-aminopropan-2-yl)-6-(4-fluoro-2-methoxyphenyl)pyridin-2-yl)oxy)-3-azabicyclo[3.1.0]hexan-3-yl)(4-methyl-2-(pyrimidin-2-yl)thiazol-5-yl)methanone]	< 10 nM	> 100 nM
Cc1nc(-c2ncccn2)sc1C(=O)N1C[C@@H]2[C@H](C1)[C@H]2Oc1cc(C(C)(C)N)cc(-c2ccc(F)c3ccccc23)n1 [Example 42, ((1R,5S,6s)-6-((4-(2-aminopropan-2-yl)-6-(4-fluoronaphthalen-1-yl)pyridin-2-yl)oxy)-3-azabicyclo[3.1.0]hexan-3-yl)(4-methyl-2-(pyrimidin-2-yl)thiazol-5-yl)methanone]	< 10 nM	10 to 100 nM
Cc1nc(-c2ncccn2)sc1C(=O)N1C[C@@H]2[C@H](C1)[C@H]2Oc1cc(C(C)(C)N)cc(-c2cc3ccccc3[nH]2)n1 [Example 43, ((1R,5S,6s)-6-((4-(2-aminopropan-2-yl)-6-(1H-indol-2-yl)pyridin-2-yl)oxy)-3-azabicyclo[3.1.0]hexan-3-yl)(4-methyl-2-(pyrimidin-2-yl)thiazol-5-yl)methanone]	< 10 nM	> 100 nM
Cc1nc(-c2ncccn2)sc1C(=O)N1C[C@@H]2[C@H](C1)[C@H]2Oc1cc(C(C)(C)N)cc(-c2cc3ccccc3n2C)n1 [Example 44, ((1R,5S,6s)-6-((4-(2-aminopropan-2-yl)-6-(1-methyl-1H-indol-2-yl)pyridin-2-yl)oxy)-3-azabicyclo[3.1.0]hexan-3-yl)(4-methyl-2-(pyrimidin-2-yl)thiazol-5-yl)methanone]	< 10 nM	10 to 100 nM
Cc1nc(-c2ncccn2)sc1C(=O)N1C[C@@H]2[C@H](C1)[C@H]2Oc1cc(C(C)(C)N)cc(C2=CCCCC2)n1 [Example 45, ((1R,5S,6s)-6-((4-(2-aminopropan-2-yl)-6-(cyclohex-1-en-1-yl)pyridin-2-yl)oxy)-3-azabicyclo[3.1.0]hexan-3-yl)(4-methyl-2-(pyrimidin-2-yl)thiazol-5-yl)methanone]	< 10 nM	> 100 nM
